Experimental data: patent publication US12433876B2, “Septin inhibitors for treatment of cancers” (UNIVERSITY OF ROCHESTER, priority 2019, dated 2025)

Tests used:
[1] = system: HER2; test: Immunoblot of HER2 expression, pancreatic and breast cancer cells; type: cell-based
[2] = system: Cullin-3; test: Cell Cycle Antibody Array, PANC-1 cells; type: cell-based; conditions: normalized to GAPDH
Source text: Cell Cycle Protein Expression. Cell Cycle Antibody Array (FullMoon BioSystems Inc, catalogue number: ACC:058), a high throughput ELISA based antibody array, designed for qualitative/semi-quantitative protein expression profiling was employed to investigate the protein changes after drug treatment. PANC-1 cells were lysed in buffer containing protease and phosphatase inhibitors (Cell Signaling, catalog number: 9803S). Total protein content was quantified by Bradford assay and equal amounts of proteins were analyzed in duplicate with arrays containing 4 to 6 spots for each of 60 probes (ACC058, Cell Cycle Antibody Array; Full Moon Biosystems, Sunnyvale, Calif.), according to manufacturer's instructions. After background correction, mean signal intensities were measured using FullMoon Inc's imaging services. Protein expressions in both the naïve and 328 treatment group was normalized to GAPDH signals. Confocal Analysis of Septin Disarrangement. To determine the impact of UR214-9 treatment on Septin-2 structure in cells, PANC-1 or JIMT-1 cells were seeded on glass slides and allowed to adhere overnight. The media was replaced with complete DMEM media supplemented with DMSO or UR214-9 (1 μM and 70 nM) and cells were incubated for 48 hours. […] The cells were stained with fluorescence linked secondary antibody for 1 hr under dark. […] Five cells were outlined and analyzed per field. […]

[3] = system: JIMT1 xenograft tumors; test: JIMT1 xenograft tumor growth; type: in vivo, NSG mice; conditions: 25 mg/kg IP, 28 days
[4] = system: PANC-1 cell line; test: RNA-Seq whole transcriptome analysis, PANC-1; type: cell-based, human; conditions: 10 nM Afatinib, 1 μM UR214-9
[5] = system: JIMT-1 cells; test: Cell cycle analysis (PI, flow cytometry), JIMT-1; type: cell-based; conditions: JIMT-1, 3 μM
Experimental: For cell cycle analysis, BXPC-3 and PANC-1 and JIMT-1 cells (100,000/well) were seeded overnight in a 6 well dishes and allowed to adhere overnight. Media was replaced with fresh complete medium supplemented with DMSO or UR214-9 (100 nM and 3 μM) and cells were incubated for 72 hours. The media containing the drugs was removed and cells were washed twice with PBS and trypsinized gently. The cells were collected in 15 mL tubes, complete DMEM media was added to block trypsin and cells were centrifuged. The supernatants were removed and cells were gently treated with 70% cold-EtOH for 30 minutes. The fixed cells were centrifuged and the pellets obtained were collected in flow cytometry tubes and stained with preformulated PI/RNase solution (Cell Signaling Technology, catalog number: 4087s) for 30 minutes. The PI content was analyzed using a flow cytometer. Data was processed using Flowjo software.

[6] = system: SKOV-3 xenograft tumors; test: SKOV-3 xenograft tumor growth; type: in vivo, NSG mice
Experimental: NSG mice 356 were implanted in their left flank with 1 million PANC-1 (HER2+, n=12), JIMT1 (number of animals=10) and SKOV-3 (number of animals=10) cells each in matrigel:media (1:1). […] The vehicle formulation was: 40% Hydroxypropyl-beta-cyclodextrin [Acros Organics] & solutol HS15 (Sigma] in sterile water). 25 mg/kg equivalent of UR214-9 (1 uL=200 ug in DMSO) was dissolved in 600 uL PBS+400 uL of the vehicle and vortexed to obtain a clear suspension.

O=C(Nc1cc(Cl)nc(Cl)c1)Nc1cccc(SC(F)(F)F)c1F [UR214-9]
HER2 expression ([1]; MDA-MB-231, JIMT-1 and MCF-7 cells, 10 and 30 μM, 24 hours): reduced HER2 expression | HER2 expression ([1]; PANC-1 (HER2+), 0.1, 1.0 and 10 μM, 72 hours): dose-dependent decrease in HER2 expression | Cullin-3 expression, treated versus naïve [2]: most pronounced upregulation | xenograft tumor growth (tumor volume and weight) [3]: significant growth control | significantly differentially expressed genes versus control [4]: no differentially expressed genes | cell cycle distribution [5]: G1 phase arrest | tumor growth during treatment ([6]; UR214-9 25 mg/kg, M-F, I.P., trastuzumab 10 mg/kg, M): controlled the growth of tumors | weight of extracted tumors ([6]; day 53 since inoculation): matched the average size seen in vehicle group | tumor size after treatments were stopped ([6]; treatment stopped on day 27): reached the average size in control
